Assays:
CDK8/CycC = target: T1, CDK8/CycC (Homo sapiens, UniProt P49336); experiment: CDK8 inhibitory activity (Kinase Tracer-236 / Eu-anti-GST fluorescence assay); format: binding; set-up: Percent inhibition of CDK8 activity (%): concentration or dose not given beside the values; settings: test compound concentration given as '1 1.1.1\4' [sic]
T1 construct: purchased Carna Biosciences
Experimental: (§1) The compound of the present invention was evaluated for its CDK8 inhibitory activity and CDK19 inhibitory activity by the following method. […] The primary diluted solution was dispensed in the amount of 2 μL/well to a 384-well plate, and then, a mixed solution of Eu^3+ Cryptate conjugated mouse monoclonal antibody anti-glutathione S-transferase (Cisbio) diluted 267-fold with an assay buffer and 60 nM Kinase Tracer-236 (Life technologies) was added thereto at 2 μL/well. […] After the addition, the plate was left standing at room temperature for 1 hour, and then, the fluorescence intensity (excitation wavelength 320 nm, fluorescence wavelength 615 nm, 665 nm, delay time 50 μsec) was measured using ann EnVision plate reader (PerkinElmer). The percent inhibition of CDK8 or CDK19 activity by the test compound can be calculated according to the following formula, wherein the fluorescence intensity of a reaction solution in the absence of compound is defined as the control, and the fluorescence intensity of a reaction solution in the presence of 10 μM of control compound is defined as the blank.

CDC2L6/CycC (CDK19) = target: T2, CDC2L6/CycC (CDK19) (Homo sapiens, UniProt Q9BWU1); experiment: CDK19 inhibitory activity (Kinase Tracer-236 / Eu-anti-GST fluorescence assay); format: binding; set-up: Percent inhibition of CDK19 activity (%): concentration or dose not given beside the values; settings: test compound concentration given as '1 1.1.1\4' [sic]
T2 construct: purchased Carna Biosciences Inc
T2 sequence (Q9BWU1 whole entry): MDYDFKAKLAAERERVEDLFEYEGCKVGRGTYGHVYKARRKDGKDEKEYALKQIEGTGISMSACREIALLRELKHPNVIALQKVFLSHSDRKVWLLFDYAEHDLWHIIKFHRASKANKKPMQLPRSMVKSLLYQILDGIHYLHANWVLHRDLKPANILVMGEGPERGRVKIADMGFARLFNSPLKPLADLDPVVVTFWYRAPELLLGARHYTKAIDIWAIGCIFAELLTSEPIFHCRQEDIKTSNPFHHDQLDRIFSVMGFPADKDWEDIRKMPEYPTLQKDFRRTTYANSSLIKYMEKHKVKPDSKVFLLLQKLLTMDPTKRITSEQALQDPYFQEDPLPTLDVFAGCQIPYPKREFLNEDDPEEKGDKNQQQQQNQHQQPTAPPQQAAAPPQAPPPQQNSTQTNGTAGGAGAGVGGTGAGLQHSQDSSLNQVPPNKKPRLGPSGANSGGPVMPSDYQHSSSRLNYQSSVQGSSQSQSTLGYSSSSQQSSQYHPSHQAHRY
T2 sequence (P24863 whole entry partner): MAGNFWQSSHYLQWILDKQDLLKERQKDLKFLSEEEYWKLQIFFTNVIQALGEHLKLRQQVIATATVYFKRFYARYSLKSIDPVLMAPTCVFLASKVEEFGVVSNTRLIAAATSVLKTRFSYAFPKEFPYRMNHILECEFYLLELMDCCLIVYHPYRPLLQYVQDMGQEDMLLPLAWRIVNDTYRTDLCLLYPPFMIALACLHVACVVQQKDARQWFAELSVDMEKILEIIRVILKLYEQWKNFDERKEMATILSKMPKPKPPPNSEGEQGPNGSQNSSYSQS
Experimental: as §1

[1] = system: human multiple myeloma RPMI8226 cells; experiment: Inhibitory activity against human multiple myeloma RPMI8226 cell growth (CellTiter-Glo); format: cell-based; settings: Homo sapiens, RPMI-8226, 192 h, 1 μM test compound, cultured for 8 days; read-out: Percent inhibition of RPMI8226 cell growth (%)
Experimental: The compound of the present invention was evaluated for its inhibitory activity against human multiple myeloma RPMI8226 cell growth by the following method.
A suspension of human multiple myeloma RPMI8226 cells (purchased from the Health Protection Agency) was inoculated at 40 μL (300 cells/well) to a 384-well plate and cultured at 37° C. for 1 day in a 5% CO2 incubator. After the culture, each test compound solution was added thereto at a test concentration of 1 μM using TECAN D300, and the cells were further cultured for 8 days. After the culture, CellTiter-Glo™ Luminescent Cell Viability Assay reagent (Promega) was added at 40 μL/well to a 384-well plate, and the amount of luminescence was measured using a luminometer. Inhibitory activity against human multiple myeloma RPMI8226 cell growth (percent inhibition (%)) of the test compound was calculated according to the following formula, which is based on the hypothesis that the amount of residual ATP reflects the number of cells. In this formula, 100% control represents the amount of luminescence from a well with only 0.1% DMSO added. Percent inhibition (%)=(1−(amount of luminescence of the test compound)÷(100% control))×100

T1 sequence (P49336 whole entry): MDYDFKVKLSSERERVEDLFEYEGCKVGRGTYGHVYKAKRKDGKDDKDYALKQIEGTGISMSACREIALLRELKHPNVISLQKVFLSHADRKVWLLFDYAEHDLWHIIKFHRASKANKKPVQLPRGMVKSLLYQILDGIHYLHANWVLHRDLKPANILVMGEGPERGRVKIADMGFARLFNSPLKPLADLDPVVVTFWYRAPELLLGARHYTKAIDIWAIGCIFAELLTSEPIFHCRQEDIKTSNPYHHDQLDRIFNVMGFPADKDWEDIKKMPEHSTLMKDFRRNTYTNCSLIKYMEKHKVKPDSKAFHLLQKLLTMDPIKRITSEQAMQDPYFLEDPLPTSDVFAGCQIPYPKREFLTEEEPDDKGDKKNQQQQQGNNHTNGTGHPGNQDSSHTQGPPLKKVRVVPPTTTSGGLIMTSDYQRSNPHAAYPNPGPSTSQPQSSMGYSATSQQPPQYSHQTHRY
T1 sequence (P24863 whole entry partner): as the sequence (P24863 whole entry partner) above

| Percent inhibition of CDK8 activity (%) (CDK8/CycC) | Percent inhibition of CDK19 activity (%) (CDC2L6/CycC (CDK19)) | Compound | inhibition at 1 µM [1] [%] |
| --- | --- | --- | --- |
| 106 | 95 | COCCN(C)C(=O)c1ccc(Oc2sc(C(N)=O)c3c2-c2sncc2CC3)cn1 [Example 101, 8-((6-((2-Methoxyethyl)(methyl)carbamoyl)pyridin-3-yl)oxy)-4,5-dihydrothieno[3,4-g][1,2]benzothiazole-6-carboxamide] | 65 |
| 103 | 100 | NC(=O)c1sc(Oc2ccc(C(=O)N3CCCC3)nc2)c2c1CCc1cnsc1-2 [Example 102, 8-((6-(Pyrrolidin-1-ylcarbonyl)pyridin-3-yl)oxy)-4,5-dihydrothieno[3,4-g][1,2] benzothiazole-6-carboxamide] | 58 |
| 103 | 95 | N#Cc1cncc(Oc2sc(C(N)=O)c3c2-c2sncc2CC3)c1 [Example 103, 8-((5-Cyanopyridin-3-yl)oxy)-4,5-dihydrothieno[3,4-g][1,2]benzothiazole-6-carboxamide] | 52 |
| 101 | 102 | NC(=O)c1sc(Oc2ccc(C(=O)N3CCC3)nc2)c2c1CCc1cnsc1-2 [Example 104] | 66 |
| 99 | 96 | CN(CCO)C(=O)c1ccc(Oc2sc(C(N)=O)c3c2-c2sncc2CC3)cn1 [Example 105] | 54 |
| 97 | 95 | NC(=O)c1sc(Oc2ccc(C(=O)N3CCCCC3)nc2)c2c1CCc1cnsc1-2 [Example 106, 8-((6-(Piperidin-1-ylcarbonyl)pyridin-3-yl)oxy)-4,5-dihydrothieno[3,4-g][1,2] benzothiazole-6-carboxamide] | 58 |
| 101 | 99 | CN(C(=O)C1CC1)c1ccc(Oc2sc(C(N)=O)c3c2-c2sncc2CC3)cn1 [Example 108, 8-((6-((Cyclopropylcarbonyl)(methyl)amimo)pyridin-3-yl)oxy)-4,5-dihydrothieno[3,4-g][1,2]benzothiazole-6-carboxamide] | 63 |
| 105 | 98 | NC(=O)c1sc(Oc2ccc(C(=O)N3CC[C@@H](O)C3)nc2)c2c1CCc1cnsc1-2 [Example 109, 8-((6-(((3R)-3-Hydroxypyrrolidin-1-yl)carbonyl)pyridin-3-yl)oxy)-4,5-dihydrothieno[3,4-g][1,2]benzothiazole-6-carboxamide] | 63 |
| 103 | 98 | NC(=O)c1sc(Oc2ccc(C(=O)N3CC[C@H](O)C3)nc2)c2c1CCc1cnsc1-2 [Example 110, 8-((6-(((3S)-3-Hydroxypyrrolidin-1-yl)carbonyl)pyridin-3-yl)oxy)-4,5-dihydrothieno[3,4-g][1,2]benzothiazole-6-carboxamide] | 63 |
| 107 | 100 | COC1CN(C(=O)c2ccc(Oc3sc(C(N)=O)c4c3-c3sncc3CC4)cn2)C1 [Example 111, 8-((6-((3-Methoxyazetidin-1-yl)carbonyl)pyridin-3-yl)oxy)-4,5-dihydrothieno[3,4-g][1,2]benzothiazole-6-carboxamide] | 58 |
| 106 | 102 | CNC(=O)c1ccc(Oc2sc(C(N)=O)c3c2-c2sncc2CC3)c(C)n1 [Example 112, 8-((2-Methyl-6-(methylcarbamoyl)pyridin-3-yl)oxy)-4,5-dihydrothieno [3,4-g][1,2]benzothiazole-6-carboxamide] | 69 |

From patent US9745325B2, “Fused heterocyclic compound” (Takeda Pharmaceutical Company Limited, priority 2014, dated 2017)
